# Test results reported in US20170190671A1, “BIS(ARYL)CATECHOL DERIVATIVES AS HERBICIDES” (E I DU PONT DE NEMOURS AND COMPANY, priority 2014, published 2017).
# Experiments:
# Type in all cases: in vivo
# [1] = system: blackgrass (Alopecurus myosuroides); test: Test C preemergence; settings: Alopecurus myosuroides, pre-emergence, 336 h, scale 0 to 100, read-out: Plant response rating, Blackgrass
# Procedure, shortened: (§1)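 Seeds in loam-sand soil were treated preemergence, and plants at the 1- to 4-leaf stage (2-18 cm) in peat-based medium were sprayed postemergence, with test chemicals in a non-phytotoxic solvent containing surfactant. After 13-15 days in a greenhouse, response was rated visually against controls from 0 (no effect) to 100 (complete control).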
# [2] = system: oilseed rape (Brassica napus); test: Test C preemergence; settings: Brassica napus, pre-emergence, scale 0 to 100, read-out: Plant response rating, Oilseed Rape
# Procedure, shortened: as §1
# [3] = system: yellow nutsedge (Cyperus esculentus); test: Test C preemergence; settings: Cyperus, pre-emergence, 336 h, scale 0 to 100, read-out: Plant response rating, Nutsedge, Yellow
# Procedure, shortened: as §1
# [4] = system: Italian ryegrass (Lolium multiflorum); test: Test C postemergence; settings: Lolium multiflorum, post-emergence, 336 h, Postemergence, scale 0 to 100, read-out: Plant response rating, Ryegrass, Italian
# Procedure, shortened: as §1
# [5] = system: barnyardgrass (Echinochloa crus-galli); test: Test C postemergence; settings: Echinochloa crus-galli, post-emergence, Postemergence, scale 0 to 100, read-out: Plant response rating, Barnyardgrass
# Procedure, shortened: as §1
# [6] = system: blackgrass (Alopecurus myosuroides); test: Test C postemergence; settings: Alopecurus myosuroides, post-emergence, 336 h, Postemergence, scale 0 to 100, read-out: Plant response rating, Blackgrass
# Procedure, shortened: as §1
# [7] = system: chickweed (common chickweed, Stellaria media); test: Test C postemergence; settings: Stellaria media, post-emergence, Postemergence, scale 0 to 100, read-out: Plant response rating, Chickweed
# Procedure, shortened: as §1
# corn (Zea mays) = test: Test C postemergence; settings: Zea mays, post-emergence, 336 h, Postemergence, scale 0 to 100
# Procedure, shortened: as §1
# [8] = system: galium (catchweed bedstraw, Galium aparine); test: Test C postemergence; settings: Galium, post-emergence, 336 h, Postemergence, scale 0 to 100, read-out: Plant response rating, Galium
# Procedure, shortened: as §1
# [9] = system: giant foxtail (Setaria faberii); test: Test C postemergence; settings: Setaria faberi, post-emergence, 336 h, Postemergence, scale 0 to 100, read-out: Plant response rating, Foxtail, Giant
# Procedure, shortened: as §1
# [10] = system: johnsongrass (Sorghum halepense); test: Test C postemergence; settings: Sorghum halepense, post-emergence, 336 h, Postemergence, scale 0 to 100, read-out: Plant response rating, Johnsongrass
# Procedure, shortened: as §1
# kochia (Kochia scoparia) = test: Test C postemergence; settings: Bassia scoparia, post-emergence, Postemergence, scale 0 to 100, read-out: Plant response rating, Kochia
# Procedure, shortened: as §1
# [11] = system: lambsquarters (Chenopodium album); test: Test C postemergence; settings: Chenopodium album, post-emergence, 336 h, Postemergence, scale 0 to 100, read-out: Plant response rating, Lambsquarters
# Procedure, shortened: as §1
# [12] = system: large (Lg) crabgrass (Digitaria sanguinalis); test: Test C postemergence; settings: Digitaria sanguinalis, post-emergence, 336 h, Postemergence, scale 0 to 100, read-out: Plant response rating, Crabgrass, Large
# Procedure, shortened: as §1
# [13] = system: morningglory (Ipomoea coccinea); test: Test C postemergence; settings: Ipomoea, post-emergence, 336 h, Postemergence, scale 0 to 100, read-out: Plant response rating, Morningglory
# Procedure, shortened: as §1
# [14] = system: oilseed rape (Brassica napus); test: Test C postemergence; settings: Brassica napus, post-emergence, Postemergence, scale 0 to 100, read-out: Plant response rating, Oilseed Rape
# Procedure, shortened: as §1
# [15] = system: ragweed (common ragweed, Ambrosia elatior); test: Test C postemergence; settings: Ambrosia artemisiifolia, post-emergence, 336 h, Postemergence, scale 0 to 100, read-out: Plant response rating, Ragweed
# Procedure, shortened: as §1
# soybean (Glycine max) = test: Test C postemergence; settings: Glycine max, post-emergence, Postemergence, scale 0 to 100, read-out: Plant response rating, Soybean
# Procedure, shortened: as §1
# [16] = system: velvetleaf (Abutilon theophrasti); test: Test C postemergence; settings: Abutilon theophrasti, post-emergence, Postemergence, scale 0 to 100, read-out: Plant response rating, Velvetleaf
# Procedure, shortened: as §1
# wild oat (Avena fatua) = test: Test C postemergence; settings: Avena fatua, post-emergence, Postemergence, scale 0 to 100, read-out: Plant response rating, Oat, Wild
# Procedure, shortened: as §1
# [17] = system: winter wheat (Triticum aestivum); test: Test C postemergence; settings: Triticum aestivum, post-emergence, 336 h, Postemergence, scale 0 to 100, read-out: Plant response rating, Wheat
# Procedure, shortened: as §1
# [18] = system: yellow nutsedge (Cyperus esculentus); test: Test C postemergence; settings: Cyperus, post-emergence, 336 h, Postemergence, scale 0 to 100, read-out: Plant response rating, Nutsedge, Yellow
# Procedure, shortened: as §1
smiles,measurement,setting,value
"Fc1cccc(Oc2ncc(Cl)cn2)c1Oc1ncc(Cl)cn1 [Compound 21, 2,2′-[[3-fluoro-1,2-phenylene]bis(oxy)]bis[5-chloropyrimidine]]",pest or weed control at 31 g/ha,"[1]; 31 g ai/ha, preemergence",30%
same,pest or weed control at 62 g/ha,"[1]; 62 g ai/ha, preemergence",90%
same,pest or weed control at 125 g/ha,"[1]; 125 g ai/ha, preemergence",90%
same,pest or weed control at 16 g/ha,"[1]; Preemergence, 16 g ai/ha",30%
same,plant injury at 31 g/ha,"[2]; 31 g ai/ha, preemergence",100%
same,plant injury at 62 g/ha,"[2]; 62 g ai/ha, preemergence",100%
same,plant injury at 125 g/ha,"[2]; 125 g ai/ha, preemergence",100%
same,plant injury at 16 g/ha,"[2]; Preemergence, 16 g ai/ha",98%
same,pest or weed control at 31 g/ha,"[3]; 31 g ai/ha, preemergence",5%
same,pest or weed control at 62 g/ha,"[3]; 62 g ai/ha, preemergence",35%
same,pest or weed control at 125 g/ha,"[3]; 125 g ai/ha, preemergence",85%
same,pest or weed control at 16 g/ha,"[3]; Preemergence, 16 g ai/ha",0%
same,pest or weed control at 31 g/ha,[4]; 31 g ai/ha,0%
same,pest or weed control at 62 g/ha,[4]; 62 g ai/ha,0%
same,pest or weed control at 125 g/ha,[4]; 125 g ai/ha,25%
same,pest or weed control at 16 g/ha,[5]; 16 g ai/ha,5%
same,pest or weed control at 31 g/ha,[5]; 31 g ai/ha,5%
same,pest or weed control at 62 g/ha,[5]; 62 g ai/ha,5%
same,pest or weed control at 125 g/ha,[5]; 125 g ai/ha,5%
same,pest or weed control at 16 g/ha,[6]; 16 g ai/ha,5%
same,pest or weed control at 31 g/ha,[6]; 31 g ai/ha,5%
same,pest or weed control at 62 g/ha,[6]; 62 g ai/ha,20%
same,pest or weed control at 125 g/ha,[6]; 125 g ai/ha,70%
same,pest or weed control at 16 g/ha,[7]; 16 g ai/ha,50%
same,pest or weed control at 31 g/ha,[7]; 31 g ai/ha,50%
same,pest or weed control at 62 g/ha,[7]; 62 g ai/ha,60%
same,pest or weed control at 125 g/ha,[7]; 125 g ai/ha,100%
same,"Corn plant response rating (crop injury, 0 = no effect, 100 = complete kill) at 16 g/ha",corn (Zea mays); 16 g ai/ha,0%
same,"Corn plant response rating (crop injury, 0 = no effect, 100 = complete kill) at 31 g/ha",corn (Zea mays); 31 g ai/ha,5%
same,"Corn plant response rating (crop injury, 0 = no effect, 100 = complete kill) at 62 g/ha",corn (Zea mays); 62 g ai/ha,5%
same,"Corn plant response rating (crop injury, 0 = no effect, 100 = complete kill) at 125 g/ha",corn (Zea mays); 125 g ai/ha,5%
same,pest or weed control at 16 g/ha,[8]; 16 g ai/ha,70%
same,pest or weed control at 31 g/ha,[8]; 31 g ai/ha,80%
same,pest or weed control at 62 g/ha,[8]; 62 g ai/ha,85%
same,pest or weed control at 125 g/ha,[8]; 125 g ai/ha,90%
same,pest or weed control at 16 g/ha,[9]; 16 g ai/ha,5%
same,pest or weed control at 31 g/ha,[9]; 31 g ai/ha,5%
same,pest or weed control at 62 g/ha,[9]; 62 g ai/ha,20%
same,pest or weed control at 125 g/ha,[9]; 125 g ai/ha,20%
same,pest or weed control at 16 g/ha,[10]; 16 g ai/ha,5%
same,pest or weed control at 31 g/ha,[10]; 31 g ai/ha,5%
same,pest or weed control at 62 g/ha,[10]; 62 g ai/ha,5%
same,pest or weed control at 125 g/ha,[10]; 125 g ai/ha,5%
same,pest or weed control at 16 g/ha,kochia (Kochia scoparia); 16 g ai/ha,85%
same,pest or weed control at 31 g/ha,kochia (Kochia scoparia); 31 g ai/ha,90%
same,pest or weed control at 62 g/ha,kochia (Kochia scoparia); 62 g ai/ha,90%
same,pest or weed control at 125 g/ha,kochia (Kochia scoparia); 125 g ai/ha,98%
same,pest or weed control at 16 g/ha,[11]; 16 g ai/ha,15%
same,pest or weed control at 31 g/ha,[11]; 31 g ai/ha,70%
same,pest or weed control at 62 g/ha,[11]; 62 g ai/ha,98%
same,pest or weed control at 125 g/ha,[11]; 125 g ai/ha,90%
same,pest or weed control at 16 g/ha,[12]; 16 g ai/ha,5%
same,pest or weed control at 31 g/ha,[12]; 31 g ai/ha,5%
same,pest or weed control at 62 g/ha,[12]; 62 g ai/ha,5%
same,pest or weed control at 125 g/ha,[12]; 125 g ai/ha,15%
same,pest or weed control at 31 g/ha,[13]; 31 g ai/ha,65%
same,pest or weed control at 62 g/ha,[13]; 62 g ai/ha,70%
same,pest or weed control at 125 g/ha,[13]; 125 g ai/ha,98%
same,plant injury at 31 g/ha,[14]; 31 g ai/ha,55%
same,plant injury at 62 g/ha,[14]; 62 g ai/ha,60%
same,plant injury at 125 g/ha,[14]; 125 g ai/ha,80%
same,pest or weed control at 31 g/ha,[15]; 31 g ai/ha,30%
same,pest or weed control at 62 g/ha,[15]; 62 g ai/ha,60%
same,pest or weed control at 125 g/ha,[15]; 125 g ai/ha,95%
same,plant injury at 31 g/ha,soybean (Glycine max); 31 g ai/ha,65%
same,plant injury at 62 g/ha,soybean (Glycine max); 62 g ai/ha,95%
same,plant injury at 125 g/ha,soybean (Glycine max); 125 g ai/ha,95%
same,pest or weed control at 31 g/ha,[16]; 31 g ai/ha,50%
same,pest or weed control at 62 g/ha,[16]; 62 g ai/ha,65%
same,pest or weed control at 125 g/ha,[16]; 125 g ai/ha,70%
same,pest or weed control at 31 g/ha,wild oat (Avena fatua); 31 g ai/ha,0%
same,pest or weed control at 62 g/ha,wild oat (Avena fatua); 62 g ai/ha,0%
same,pest or weed control at 125 g/ha,wild oat (Avena fatua); 125 g ai/ha,40%
same,plant injury at 31 g/ha,[17]; 31 g ai/ha,0%
same,plant injury at 62 g/ha,[17]; 62 g ai/ha,0%
same,plant injury at 125 g/ha,[17]; 125 g ai/ha,5%
same,pest or weed control at 31 g/ha,[18]; 31 g ai/ha,5%
same,pest or weed control at 62 g/ha,[18]; 62 g ai/ha,5%
same,pest or weed control at 125 g/ha,[18]; 125 g ai/ha,5%
